Patent US10059674B2, “Design, synthesis, and biological evaluation of 1-methyl-1, 4-dihyrdoindeno[1,2-C]pyrazole analogues as potential anticaner agents targeting tubulin colchicine binding site” (ACT PHARMA CO., LTD., priority 2016, dated 2018)
Like-named read-outs stand apart in the source and are kept apart here.

Key:
[1] = MDCK cell permeability test; conditions: dog, MDCK, 90 min; for Papp A→B at 90 min: Apparent permeability coefficient A→B; for Papp B→A at 90 min: Apparent permeability coefficient B→A
MDCK cells [2] = tested on: MDCK cells
[3] = tested on: human prostate carcinoma (PC3) cells; assay: Anti-proliferation test (MTT colorimetry); assay type: cell-based; conditions: PC-3, PC3, 72 h
Description: (§1) The compound of formula 1 (prepared in embodiment 1), and the compound of formula 2 (prepared in embodiment 2) are given at different concentrations to human hepatocellular carcinoma (HepG2) cells, human prostate carcinoma (PC3) cells, human cervical carcinoma (HeLa) cells, human breast adenocarcinoma (MCF-7) cells, and human leukemia (K562) cells; all the groups are incubated 72 h in an incubator containing 5% of CO2 at 37° C., and then inhabitation ratios of the compounds to the tumor cells are measured by using methyl thiazolyl tetrazolium (MTT) colorimetry, and results are shown in table 1.

[4] = tested on: human breast adenocarcinoma (MCF-7) cells; assay: Anti-proliferation test (MTT colorimetry); assay type: cell-based; conditions: MCF7, MCF-7, 72 h
Description: as §1

[5] = tested on: human cervical carcinoma (HeLa) cells; assay: Anti-proliferation test (MTT colorimetry); assay type: cell-based; conditions: 72 h
Description: as §1

[6] = tested on: human hepatocellular carcinoma (HepG2) cells; assay: Anti-proliferation test (MTT colorimetry); assay type: cell-based; conditions: HepG2, 72 h
Description: as §1

[7] = tested on: human leukemia (K562) cells; assay: Anti-proliferation test (MTT colorimetry); assay type: cell-based; conditions: K562, 72 h
Description: as §1

in vitro [8] = conditions: dog, microsomes, pH 7.47
tubulin = assay: Tubulin polymerization experiment (Cytoskeleton Tubulin Polymerization Assay Kit); assay type: biochemical
Description: The tubulin polymerization experiment is carried out according to the specifications of Tubulin Polymerization Assay Kit of Cytoskeleton Corporation.

in vitro [9] = conditions: human, microsomes, pH 7.47
[10] = Liver microsomal metabolism stability test; conditions: mouse
MDCK cells [11] = assay: MDCK cell permeability test
P-gp = assay: MDCK cell permeability test; conditions: dog, MDCK
in vitro [12] = conditions: monkey, microsomes, pH 7.47
in vitro [13] = conditions: mouse, liver microsomes, pH 7.47
in vitro [14] = conditions: rat, microsomes, pH 7.47
[15] = Liver microsomal metabolism stability test; conditions: rat, microsomes, pH 7.47
[16] = Recovery rate A→B, 2nd line of the compound (condition not given)
[17] = Recovery rate A→B, 1st line of the compound (condition not given; method: without / with 10 μM cyclosporine A)
[18] = Recovery rate B→A, 1st line of the compound (condition not given)
[19] = Recovery rate B→A, 2nd line of the compound (condition not given)
[20] = 1st line of the compound (condition not given)
[21] = 2nd line of the compound (condition not given)

SMILES: CC(C)CN(C[C@@H](O)[C@H](Cc1ccccc1)NC(=O)O[C@H]1CCOC1)S(=O)(=O)c1ccc(N)cc1 [Amprenavir, amprenavir, reference compound]
- recovery at 90 min [1, 16]: 95.4%
- recovery at 90 min [1, 17]: 106%
- recovery at 90 min [1, 18]: 102%
- recovery at 90 min [1, 19]: 100%
- PGP substrate judgment (MDCK cells [2]): Yes

SMILES: CCOc1cccc(Nc2nn(C)c3c2Cc2cc(OCC)c(OCC(=O)NO)cc2-3)c1 [LL-02]
- IC50 [3]: 23.5 nM
- IC50 [4]: 3.36 nM
- IC50 [5]: 13.2 nM
- IC50 [6]: 16.4 nM
- IC50 [7]: 8.33 nM
- half-life at 1 µM (in vitro [8]): 7.5 min
- microsomal CLint at 1 µM (in vitro [8]): 185 µL/min/mg
- inhibition of tubulin polymerization (in words) (tubulin; FIGS. 1 and 2): able to inhibit tubulin polymerization
- IC50 (tubulin; read-out: tubulin polymerization inhibiting IC50): 5330 nM
- half-life at 1 µM (in vitro [9]): 12.9 min
- microsomal CLint at 1 µM (in vitro [9]): 108 µL/min/mg
- metabolism in the liver microsomes (in words) [10]: faster
- PGP substrate judgment (MDCK cells [11]; MDCK cells): is the PGP substrate and Yes
- Permeability Judgment (MDCK cells [11]; MDCK cells): moderate permeability
- Efllux ratio (MDCK cells [11]; Papp(B→A)/Papp(A→B), 2nd line of the compound (condition not given)): 0.6
- efflux ratio at 90 min (P-gp): 4.4
- Papp A→B at 90 min [1, 20]: 7.4 ×10⁻⁶ cm/s
- Papp A→B at 90 min [1, 21]: 12.4 ×10⁻⁶ cm/s
- Papp B→A at 90 min [1, 20]: 32.6 ×10⁻⁶ cm/s
- Papp B→A at 90 min [1, 21]: 6.9 ×10⁻⁶ cm/s
- recovery at 90 min [1, 16]: 59.2%
- recovery at 90 min [1, 17]: 89.4%
- recovery at 90 min [1, 18]: 91.3%
- recovery at 90 min [1, 19]: 79.4%
- half-life at 1 µM (in vitro [12]): 1.3 min
- microsomal CLint at 1 µM (in vitro [12]): 1070 µL/min/mg
- half-life at 1 µM (in vitro [13]): 17.8 min
- microsomal CLint at 1 µM (in vitro [13]): 78 µL/min/mg
- half-life at 1 µM (in vitro [14]): 24 min
- microsomal CLint at 1 µM (in vitro [14]): 57.7 µL/min/mg

SMILES: COc1ccc2[nH]c([S+]([O-])Cc3ncc(C)c(OC)c3C)nc2c1 (stereo not shown) [omeprazole, reference compound]
- half-life at 1 µM [15]: 15.7 min
- microsomal CLint at 1 µM (in vitro [14]): 88.3 µL/min/mg
